Laboratory results taken from US20140155406A1, “4-IMIDAZOPYRIDAZIN-1-YL-BENZAMIDES AND 4-IMIDAZOTRIAZIN-1-YL-BENZAMIDES BTK INHIBITORS” (priority 2011, published 2014).

How the values were obtained:
Assay type in all cases: biochemical
Lyn enzyme = target: T1, Lyn enzyme (Homo sapiens, UniProt P07948); experiment: Lyn enzyme activity, IMAP fluorescence polarization assay; settings: 60 min pre-incubation, 2 μM ATP (Km)
T1 construct: purchased Millipore 14-510
Method: Lyn enzyme activity is measured using the IMAP (immobilized metal ion affinity-based fluorescence polarization) assay as outlined below.
Lyn enzyme (Millipore catalog#14-510), is diluted to 250 mU/mL in KR buffer (10 mM Tris-HCl, 10 mM MgCl2, 0.01% Tween-20, 0.05% NaN3, 1 mM DTT, 2 mM MnCl2, pH 7.2). Serial dilution log 10 from 2 mM to 63.2 nM of test compounds are made in 100% DMSO. The dilutions in DMSO are then diluted 50-fold in KR-buffer of which 5 μl is used in the assay, leading to a final compound concentration range in the assay from 10 μM to 0.316 nM. 5 μL/well of test compound in KR buffer (final DMSO concentration in the assay is 1%) is mixed with 5 μl/well of 250 mU/mL Lyn enzyme (final concentration in the assay is 62.5 mU/mL). Test compounds and Lyn enzyme are pre-incubated 60 minutes at room temperature, before adding 5 μL/well of 400 nM Fluorescin labeled substrate peptide (Blk/Lyntide substrate, e.g. #R7188/#R7233, Molecular Devices) in KR-buffer. Final peptide substrate concentration in assay is 100 nM. The kinase assay is started by adding 5 μL/well of 8 μM ATP in KR-buffer (final ATP concentration is 2 μM ATP, Km ATP in Lyn IMAP assay). Following incubation for 2 h at room temperature the enzyme reaction is stopped by adding 40 μL/well IMAP Progressive Binding Solution (according to suppliers (Molecular Devices) protocol using 75% 1× buffer A and 25% 1× buffer B with 1:600 Progressive Binding Solution). After 60 min incubation at room temperature in the dark the FP signal is read. Fluorescence at 535 nm is measured using parallel and perpendicular filters to determine differences in rotation due to binding of the phosphorylated substrate peptide to the beads. Values are calculated as percentage of the difference in readout (ΔmPi) of the controls with and without ATP. EC50 values are determined by curve fitting of the experimental results using Activity Base.

FynT enzyme = target: T2, FynT enzyme (Homo sapiens, UniProt P06241); experiment: FynT enzyme activity, IMAP fluorescence polarization assay; settings: 60 min pre-incubation, 0.2 μM ATP (Km)
T2 construct: purchased Biomol SE-287
T2 sequence (P06241 1-534 isoform P06241-2): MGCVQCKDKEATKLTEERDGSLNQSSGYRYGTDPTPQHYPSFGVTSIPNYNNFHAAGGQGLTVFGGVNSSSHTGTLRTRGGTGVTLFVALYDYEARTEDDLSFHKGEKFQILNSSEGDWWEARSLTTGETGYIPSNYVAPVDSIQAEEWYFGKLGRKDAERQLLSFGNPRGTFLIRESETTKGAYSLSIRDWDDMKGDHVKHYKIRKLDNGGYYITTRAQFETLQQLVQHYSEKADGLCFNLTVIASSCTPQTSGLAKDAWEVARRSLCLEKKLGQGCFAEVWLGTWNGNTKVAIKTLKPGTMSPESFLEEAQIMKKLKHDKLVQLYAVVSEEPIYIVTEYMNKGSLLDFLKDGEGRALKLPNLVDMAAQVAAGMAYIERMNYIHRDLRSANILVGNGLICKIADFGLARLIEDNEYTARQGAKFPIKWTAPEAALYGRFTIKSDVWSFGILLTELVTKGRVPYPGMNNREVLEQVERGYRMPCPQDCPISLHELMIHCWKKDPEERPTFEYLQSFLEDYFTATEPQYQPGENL
Method: FynT enzyme activity is measured using the IMAP (immobilized metal ion affinity-based fluorescence polarization) assay as outlined below.
FynT enzyme (Biomol catalog# SE-287), is diluted to 0.5 μg/mL in KR buffer (10 mM Tris-HCl, 10 mM MgCl2, 0.01% Tween-20, 0.05% NaN3, 1 mM DTT, 2 mM MnCl2, pH 7.2). Serial dilution log 10 from 2 mM to 63.2 nM of test compounds are made in 100% DMSO. The dilutions in DMSO are then diluted 50-fold in KR-buffer of which 5 μl is used in the assay, leading to a final compound concentration range in the assay from 10 μM to 0.316 nM. 5 μL/well of test compound in KR buffer (final DMSO concentration in the assay is 1%) is mixed with 5 μl/well of 0.5 μg/mL FynT enzyme (final concentration in the assay is 125 ng/mL). Test compounds and FynT enzyme are pre-incubated 60 minutes at room temperature, before adding 5 μL/well of 400 nM Fluorescin labeled substrate peptide (p34cdc2 substrate peptide, e.g. #R7157/#R7172, Molecular Devices) in KR-buffer. Final peptide substrate concentration in assay is 100 nM. The kinase assay is started by adding 5 μL/well of 0.8 μM ATP in KR-buffer (final ATP concentration is 0.2 μM ATP, Km ATP in FynT IMAP assay). Following incubation for 2 h at room temperature the enzyme reaction is stopped by adding 40 μL/well IMAP Progressive Binding Solution (according to suppliers (Molecular Devices) protocol using 75% 1× buffer A and 25% 1× buffer B with 1:600 Progressive Binding Solution). After 60 min incubation at room temperature in the dark the FP signal is read. Fluorescence at 535 nm is measured using parallel and perpendicular filters to determine differences in rotation due to binding of the phosphorylated substrate peptide to the beads. Values are calculated as percentage of the difference in readout (ΔmPi) of the controls with and without ATP. EC50 values are determined by curve fitting of the experimental results using Activity Base.

Lck enzyme = target: T3, Lck enzyme (Homo sapiens, UniProt P06239); experiment: Lck enzyme activity, IMAP fluorescence polarization assay; settings: 60 min pre-incubation, 6 μM ATP (Km)
T3 construct: purchased Millipore 14-442
T3 sequence (P06239 whole entry): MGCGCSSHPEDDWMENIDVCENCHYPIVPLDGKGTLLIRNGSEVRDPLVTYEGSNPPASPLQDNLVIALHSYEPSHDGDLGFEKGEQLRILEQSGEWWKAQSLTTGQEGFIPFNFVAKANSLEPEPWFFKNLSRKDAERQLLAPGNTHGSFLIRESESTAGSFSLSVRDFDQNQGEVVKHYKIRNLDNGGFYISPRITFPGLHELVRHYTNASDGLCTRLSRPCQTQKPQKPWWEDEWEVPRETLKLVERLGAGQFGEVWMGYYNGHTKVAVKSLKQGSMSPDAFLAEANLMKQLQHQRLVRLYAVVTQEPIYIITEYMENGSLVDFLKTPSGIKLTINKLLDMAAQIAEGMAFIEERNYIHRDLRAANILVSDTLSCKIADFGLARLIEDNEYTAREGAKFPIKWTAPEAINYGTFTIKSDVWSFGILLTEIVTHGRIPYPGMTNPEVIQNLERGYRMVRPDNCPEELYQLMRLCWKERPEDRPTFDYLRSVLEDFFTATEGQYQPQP
Method: Lck enzyme activity is measured using the IMAP (immobilized metal ion affinity-based fluorescence polarization) assay as outlined below.
Lck enzyme (Millipore catalog#14-442), is diluted to 0.4 U/mL in KR buffer (10 mM Tris-HCl, 10 mM MgCl2, 0.01% Tween-20, 0.05% NaN3, 1 mM DTT, 2 mM MnCl2, pH 7.2). Serial dilution log 10 from 2 mM to 63.2 nM of test compounds are made in 100% DMSO. The dilutions in DMSO are then diluted 50-fold in KR-buffer of which 5 μl is used in the assay, leading to a final compound concentration range in the assay from 10 μM to 0.316 nM. 5 μL/well of test compound in KR buffer (final DMSO concentration in the assay is 1%) is mixed with 5 μl/well of 0.4 U/mL Lck enzyme (final concentration in the assay is 0.1 U/mL). Test compounds and Lck enzyme are pre-incubated 60 minutes at room temperature, before adding 5 μL/well of 400 nM Fluorescin labeled substrate peptide (p34cdc2 substrate peptide, e.g. #R7157/#R7172, Molecular Devices) in KR-buffer. Final peptide substrate concentration in assay is 100 nM. The kinase assay is started by adding 5 μL/well of 24 μM ATP in KR-buffer (final ATP concentration is 6 μM ATP, Km ATP in Lck IMAP assay). Following incubation for 2 h at room temperature the enzyme reaction is stopped by adding 40 μL/well IMAP Progressive Binding Solution (according to suppliers (Molecular Devices) protocol using 75% 1× buffer A and 25% 1× buffer B with 1:600 Progressive Binding Solution). After 60 min incubation at room temperature in the dark the FP signal is read. Fluorescence at 535 nm is measured using parallel and perpendicular filters to determine differences in rotation due to binding of the phosphorylated substrate peptide to the beads. Values are calculated as percentage of the difference in readout (ΔmPi) of the controls with and without ATP. EC50 values are determined by curve fitting of the experimental results using Activity Base.

Src enzyme = target: T4, Src enzyme (Homo sapiens, UniProt P12931); experiment: Src enzyme activity, IMAP fluorescence polarization assay; settings: 60 min pre-incubation, 4 μM ATP (Km)
T4 construct: purchased Millipore 14-326
T4 sequence (P12931 whole entry): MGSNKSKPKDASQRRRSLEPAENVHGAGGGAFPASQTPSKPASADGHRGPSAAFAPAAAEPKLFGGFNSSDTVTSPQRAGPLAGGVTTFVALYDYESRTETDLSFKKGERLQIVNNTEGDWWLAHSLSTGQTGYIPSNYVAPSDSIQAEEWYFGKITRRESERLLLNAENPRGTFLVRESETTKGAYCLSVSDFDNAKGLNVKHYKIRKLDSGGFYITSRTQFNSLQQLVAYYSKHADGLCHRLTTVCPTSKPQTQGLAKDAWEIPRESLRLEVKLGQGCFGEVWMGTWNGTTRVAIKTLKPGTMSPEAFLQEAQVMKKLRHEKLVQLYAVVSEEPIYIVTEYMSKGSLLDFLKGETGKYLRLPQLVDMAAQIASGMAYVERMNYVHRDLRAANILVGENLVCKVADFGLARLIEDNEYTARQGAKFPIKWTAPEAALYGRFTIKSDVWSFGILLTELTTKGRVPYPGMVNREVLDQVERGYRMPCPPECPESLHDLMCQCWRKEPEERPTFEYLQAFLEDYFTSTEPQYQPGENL
Method: Src enzyme activity is measured using the IMAP (immobilized metal ion affinity-based fluorescence polarization) assay as outlined below.
Src enzyme (Millipore catalog#14-326), is diluted to 0.8 U/mL in KR buffer (10 mM Tris-HCl, 10 mM MgCl2, 0.01% Tween-20, 0.05% NaN3, 1 mM DTT, 2 mM MnCl2, pH 7.2).
Serial dilution log 10 from 2 mM to 63.2 nM of test compounds are made in 100% DMSO. The dilutions in DMSO are then diluted 50-fold in KR-buffer of which 5 μl is used in the assay, leading to a final compound concentration range in the assay from 10 μM to 0.316 nM. 5 μL/well of test compound in KR buffer (final DMSO concentration in the assay is 1%) is mixed with 5 μl/well of 0.8 U/mL Src enzyme (final concentration in the assay is 0.2 U/mL). Test compounds and Src enzyme are pre-incubated 60 minutes at room temperature, before adding 5 μL/well of 400 nM Fluorescin labeled substrate peptide (p34cdc2 substrate peptide, e.g. #R7157/#R7172, Molecular Devices) in KR-buffer. Final peptide substrate concentration in assay is 100 nM. The kinase assay is started by adding 5 μL/well of 16 μM ATP in KR-buffer (final ATP concentration is 4 μM ATP, Km ATP in Src IMAP assay). Following incubation for 2 h at room temperature the enzyme reaction is stopped by adding 40 μL/well IMAP Progressive Binding Solution (according to suppliers (Molecular Devices) protocol using 75% 1× buffer A and 25% 1× buffer B with 1:600 Progressive Binding Solution). After 60 min incubation at room temperature in the dark the FP signal is read. Fluorescence at 535 nm is measured using parallel and perpendicular filters to determine differences in rotation due to binding of the phosphorylated substrate peptide to the beads. Values are calculated as percentage of the difference in readout (ΔmPi) of the controls with and without ATP. EC50 values are determined by curve fitting of the experimental results using Activity Base.

T1 sequence (P07948 whole entry): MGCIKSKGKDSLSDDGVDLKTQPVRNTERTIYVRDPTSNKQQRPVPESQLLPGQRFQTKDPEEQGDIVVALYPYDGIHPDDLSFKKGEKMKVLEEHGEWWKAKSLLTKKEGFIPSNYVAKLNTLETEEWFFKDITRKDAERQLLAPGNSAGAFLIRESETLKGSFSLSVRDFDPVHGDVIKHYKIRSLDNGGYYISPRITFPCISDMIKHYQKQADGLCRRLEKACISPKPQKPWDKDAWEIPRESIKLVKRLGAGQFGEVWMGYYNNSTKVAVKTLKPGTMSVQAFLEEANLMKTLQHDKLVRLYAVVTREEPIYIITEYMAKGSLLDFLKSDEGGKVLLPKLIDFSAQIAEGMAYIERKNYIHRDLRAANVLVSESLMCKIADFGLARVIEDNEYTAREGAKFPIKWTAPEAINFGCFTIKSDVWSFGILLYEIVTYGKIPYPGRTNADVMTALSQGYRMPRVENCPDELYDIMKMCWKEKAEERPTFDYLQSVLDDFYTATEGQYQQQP

SMILES | EC50 (Lyn enzyme) [µM] | EC50 (FynT enzyme) [µM] | EC50 (Lck enzyme) [µM] | EC50 (Src enzyme) [µM]
CC#CC(=O)N1CCC[C@H]1c1nc(-c2ccc(C(=O)Nc3ccccn3)cc2)c2c(C)nccn12 [Example 1, (S)-4-(3-(1-But-2-ynoylpyrrolidin-2-yl)-8-methylimidazo[1,5-a]pyrazin-1-yl)-N-(pyridin-2-yl)benzamide] | ≥ 1 | ≥ 1 | ≥ 1 | ≥ 1
CCCc1ccnc(NC(=O)c2ccc(-c3nc([C@@H]4CCCCN4C(=O)c4ccnc(Cl)n4)n4ccnc(C)c34)cc2)c1 [Example 5, (S)-4-(3-(1-(2-chloropyrimidine-4-carbonyl)piperidin-2-yl)-8-methylimidazo[1,5-a]pyrazin-1-yl)-N-(4-propylpyridin-2-yl)benzamide] | ≥ 1 | ≥ 1 | ≥ 1 | ≥ 1
Cc1nccn2c([C@@H]3CCCCN3C(=O)c3ccnc(Cl)n3)nc(-c3ccc(C(=O)Nc4cc(C(F)(F)F)ccn4)cc3)c12 [Example 17, (S)-4-(3-(1-(2-chloropyrimidine-4-carbonyl)piperidin-2-yl)-8-methylimidazo[1,5-a]pyrazin-1-yl)-N-(4-(trifluoromethyl)pyridin-2-yl)benzamide] | ≥ 1 | ≥ 1 | ≥ 1 | ≥ 1
COC/C=C/C(=O)N1CCCC[C@H]1c1nc(-c2ccc(C(=O)Nc3cc(C(F)(F)F)ccn3)cc2)c2c(C)nccn12 [Example 30, (S,E)-4-(3-(1-(4-methoxybut-2-enoyl)piperidin-2-yl)-8-methylimidazo[1,5-a]pyrazin-1-yl)-N-(4-(trifluoromethyl)pyridin-2-yl)benzamide] | ≥ 1 | ≥ 1 | ≥ 1 | ≥ 1

More lines, now with the values ahead:

EC50 (Lyn enzyme) [µM] | EC50 (FynT enzyme) [µM] | EC50 (Lck enzyme) [µM] | EC50 (Src enzyme) [µM] | SMILES
≥ 1 | ≥ 1 | ≥ 1 | ≥ 1 | C=CC(=O)N1CCC[C@H]1c1nc(-c2ccc(C(=O)Nc3cc(C)ccn3)cc2)c2c(C)nccn12 [Example 11, (S)-4-(3-(1-Acryloylpyrrolidin-2-yl)-8-methylimidazo[1,5-a]pyrazin-1-yl)-N-(4-methylpyridin-2-yl)benzamide]
≥ 1 | ≥ 1 | ≥ 1 | ≥ 1 | C=CC(=O)N1CCC[C@H]1c1nc(-c2ccc(C(=O)Nc3cc(OC)ccn3)cc2)c2c(C)nccn12 [Example 12, (S)-4-(3-(1-acryloylpyrrolidin-2-yl)-8-methylimidazo[1,5-a]pyrazin-1-yl)-N-(4-methoxypyridin-2-yl)benzamide]
≥ 1 | ≥ 1 | ≥ 1 | ≥ 1 | C=CC(=O)N1CCC[C@H]1c1nc(-c2ccc(C(=O)Nc3cc(CC)ccn3)cc2)c2c(C)nccn12 [Example 14, (S)-4-(3-(1-Acryloylpyrrolidin-2-yl)-8-methylimidazo[1,5-a]pyrazin-1-yl)-N-(4-ethylpyridin-2-yl)benzamide]
≥ 1 | ≥ 1 | ≥ 1 | ≥ 1 | CC#CC(=O)N1CCC[C@H]1c1nc(-c2ccc(C(=O)Nc3cc(OC)ccn3)cc2)c2c(C)nccn12 [Example 16, (S)-4-(3-(1-but-2-ynoylpyrrolidin-2-yl)-8-methylimidazo[1,5-a]pyrazin-1-yl)-N-(4-methoxypyridin-2-yl)benzamide]
≥ 1 | ≥ 1 | ≥ 1 | ≥ 1 | CC#CC(=O)N1CCC[C@H]1c1nc(-c2ccc(C(=O)Nc3cc(CC)ccn3)cc2)c2c(C)nccn12 [Example 20, (S)-4-(3-(1-but-2-ynoylpyrrolidin-2-yl)-8-methylimidazo[1,5-a]pyrazin-1-yl)-N-(4-ethylpyridin-2-yl)benzamide]
≥ 1 | ≥ 1 | ≥ 1 | ≥ 1 | CC#CC(=O)N1CCC[C@H]1c1nc(-c2ccc(C(=O)Nc3cc(C(F)(F)F)ccn3)cc2)c2c(C)nccn12 [Example 26, (S)-4-(3-(1-but-2-ynoylpyrrolidin-2-yl)-8-methylimidazo[1,5-a]pyrazin-1-yl)-N-(4-(trifluoromethyl)pyridin-2-yl)benzamide]
